Calls of active or inactive are those of the source. The calls are words filed in the database; no cut-off is given here.
What was measured:
[1] = test system: K-562R; assay: Potency index, ratio of IC50 for TSA to IC50 for test compound for antiproliferative activity against human K562R cells after 72 hrs by MTS assay; type: functional
[2] = test system: HCT-116; assay: Induction of cell cycle arrest in human HCT116 cells assessed as accumulation at G2/M phase at 5 to 10 nM after 24 hrs by propidium iodide-staining based flow cytometry; type: functional
[3] = molecular target: T1, Protein deacetylase HDAC6 (Homo sapiens, UniProt Q9UBN7)
T1 sequence (Q9UBN7 whole entry): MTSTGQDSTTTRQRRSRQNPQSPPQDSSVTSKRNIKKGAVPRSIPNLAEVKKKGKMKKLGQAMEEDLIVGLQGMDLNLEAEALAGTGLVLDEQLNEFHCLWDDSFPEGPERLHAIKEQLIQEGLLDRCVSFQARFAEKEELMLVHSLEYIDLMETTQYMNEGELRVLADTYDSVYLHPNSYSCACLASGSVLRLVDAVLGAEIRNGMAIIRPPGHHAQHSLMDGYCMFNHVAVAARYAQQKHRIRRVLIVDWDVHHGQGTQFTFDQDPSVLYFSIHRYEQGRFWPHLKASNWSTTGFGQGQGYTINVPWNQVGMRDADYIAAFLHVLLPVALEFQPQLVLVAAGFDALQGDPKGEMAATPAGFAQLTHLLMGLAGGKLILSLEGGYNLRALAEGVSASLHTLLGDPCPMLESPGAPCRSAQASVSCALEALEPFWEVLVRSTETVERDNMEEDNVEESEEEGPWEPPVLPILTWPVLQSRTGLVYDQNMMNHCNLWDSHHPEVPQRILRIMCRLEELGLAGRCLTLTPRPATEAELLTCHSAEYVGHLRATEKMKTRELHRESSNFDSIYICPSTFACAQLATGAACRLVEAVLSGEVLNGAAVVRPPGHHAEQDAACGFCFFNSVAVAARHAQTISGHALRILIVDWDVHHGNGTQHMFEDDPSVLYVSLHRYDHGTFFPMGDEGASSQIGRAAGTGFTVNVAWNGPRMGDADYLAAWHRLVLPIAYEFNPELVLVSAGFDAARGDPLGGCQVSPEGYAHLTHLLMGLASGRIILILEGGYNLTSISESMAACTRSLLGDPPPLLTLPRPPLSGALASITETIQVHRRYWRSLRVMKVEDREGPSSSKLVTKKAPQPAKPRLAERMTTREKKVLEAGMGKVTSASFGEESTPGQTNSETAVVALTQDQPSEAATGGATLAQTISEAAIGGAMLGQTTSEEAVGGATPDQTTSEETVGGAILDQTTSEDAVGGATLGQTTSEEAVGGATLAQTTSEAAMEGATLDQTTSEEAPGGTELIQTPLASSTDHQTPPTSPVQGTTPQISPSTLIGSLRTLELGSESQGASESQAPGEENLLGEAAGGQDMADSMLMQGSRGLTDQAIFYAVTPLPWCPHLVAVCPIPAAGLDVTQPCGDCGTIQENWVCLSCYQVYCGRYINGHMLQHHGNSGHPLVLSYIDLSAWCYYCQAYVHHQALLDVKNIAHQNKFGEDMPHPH
Description: (§1) Inhibition of human recombinant HDAC6 after 30 mins using fluorogenic substrate by fluorimetric assay

[4] = test system: HT-29; assay: Antiproliferative activity against human HT-29 cells after 72 hrs by MTS assay; type: functional; details: Homo sapiens, HT-29, 72 h
[5] = molecular target: T2, Histone deacetylase 8 (Homo sapiens) (UniProt Q9BY41); assay: Inhibition of HDAC8 in human HT-29 cells assessed as acetylated SMC3 levels at 25 uM after 6 hrs by Western blot analysis relative to control; type: cell-based
T2 sequence (whole entry): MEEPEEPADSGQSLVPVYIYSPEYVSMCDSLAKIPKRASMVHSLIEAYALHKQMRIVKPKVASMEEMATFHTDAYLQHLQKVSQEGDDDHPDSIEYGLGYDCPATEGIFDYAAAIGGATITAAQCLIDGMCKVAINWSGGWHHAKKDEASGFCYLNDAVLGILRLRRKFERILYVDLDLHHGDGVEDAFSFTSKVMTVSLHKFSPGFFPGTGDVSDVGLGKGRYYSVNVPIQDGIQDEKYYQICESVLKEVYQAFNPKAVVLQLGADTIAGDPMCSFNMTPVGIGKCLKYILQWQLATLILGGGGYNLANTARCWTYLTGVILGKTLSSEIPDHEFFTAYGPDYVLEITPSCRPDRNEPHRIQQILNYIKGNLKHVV

[6] = molecular target: T3, Histone deacetylase (Homo sapiens) (UniProt Q13547+O15379+Q9UBN7+Q92769+Q9UQL6+Q8WUI4+Q9BY41+Q96DB2+P56524+Q9UKV0+Q969S8); assay: Inhibition of HDAC in human HT-29 cells assessed as phosphorylated gamma-H2AX levels at 80 nM after 3 days by Western blot analysis relative to control; type: cell-based
[7] = molecular target: T3, Histone deacetylase (Homo sapiens); assay: Inhibition of HDAC in human HT-29 cells assessed as gamma-H2AX phosphorylation after 3 days by Western blot analysis; type: cell-based
[8] = species: Homo sapiens; assay: Induction of cell cycle arrest in human BL2 cells assessed as accumulation at G2/M phase after 24 hrs by propidium iodide-staining based flow cytometry; type: functional
[9] = molecular target: Tubulin (Homo sapiens) (UniProt P68371+Q9H4B7+P0DPH7+P68366+Q13509+Q71U36+P04350+Q3ZCM7+P07437+P68363+Q9BQE3+Q6PEY2+Q13885+Q9BVA1+Q9BUF5); assay: Inhibition of tubulin polymerization in human K562 cells assessed as shrinkage of microtubule spindles at 10 nM after 24 hrs by DAPI-staining based inverted microscopy; type: cell-based
[10] = molecular target: T4, Protein deacetylase HDAC6 (Homo sapiens) (UniProt Q9UBN7); assay: Inhibition of human recombinant HDAC6 at 10^-5 M after 30 mins using fluorogenic substrate by fluorimetric assay relative to control
T4 sequence (whole entry): T1 sequence (Q9UBN7 whole entry)

[11] = molecular target: Histone deacetylase 7 (Homo sapiens) (UniProt Q8WUI4); assay: Inhibition of human recombinant HDAC7 at 10^-5 M after 45 mins using fluorogenic substrate by fluorimetric assay relative to control
[12] = Antiproliferative activity against human BL2 cells after 72 hrs by MTS assay; type: functional, cell-based; details: BL2, 72 h
[13] = molecular target: T3, Histone deacetylase (Homo sapiens); assay: Inhibition of HDAC in human HT-29 cells assessed as phosphorylated gamma-H2AX levels at 40 nM after 3 days by Western blot analysis relative to control; type: cell-based
[14] = test system: U-87 MG; assay: Potency index, ratio of IC50 for isoCA4 to IC50 for test compound for antiproliferative activity against human U87 cells after 72 hrs by MTS assay; type: functional, U-87MG ATCC
[15] = test system: HT-29; assay: Potency index, ratio of IC50 for isoCA4 to IC50 for test compound for antiproliferative activity against human HT-29 cells after 72 hrs by MTS assay; type: functional
[16] = test system: HT-29; assay: Antiproliferative activity against human HT-29 cells in presence of TSA after 72 hrs by MTS assay relative to control; type: functional, cell-based; details: HT-29, 72 h
[17] = molecular target: T5, Histone deacetylase 8 (Homo sapiens, UniProt Q9BY41); assay: Inhibition of human recombinant HDAC8 after 30 mins using fluorogenic substrate by fluorimetric assay
T5 sequence (Q9BY41 whole entry): T2 sequence (whole entry)

[18] = molecular target: T1, Protein deacetylase HDAC6; remark: listed apart in the source
Description: as §1

Sequence of Histone deacetylase 7 (Homo sapiens) (Q8WUI4 whole entry): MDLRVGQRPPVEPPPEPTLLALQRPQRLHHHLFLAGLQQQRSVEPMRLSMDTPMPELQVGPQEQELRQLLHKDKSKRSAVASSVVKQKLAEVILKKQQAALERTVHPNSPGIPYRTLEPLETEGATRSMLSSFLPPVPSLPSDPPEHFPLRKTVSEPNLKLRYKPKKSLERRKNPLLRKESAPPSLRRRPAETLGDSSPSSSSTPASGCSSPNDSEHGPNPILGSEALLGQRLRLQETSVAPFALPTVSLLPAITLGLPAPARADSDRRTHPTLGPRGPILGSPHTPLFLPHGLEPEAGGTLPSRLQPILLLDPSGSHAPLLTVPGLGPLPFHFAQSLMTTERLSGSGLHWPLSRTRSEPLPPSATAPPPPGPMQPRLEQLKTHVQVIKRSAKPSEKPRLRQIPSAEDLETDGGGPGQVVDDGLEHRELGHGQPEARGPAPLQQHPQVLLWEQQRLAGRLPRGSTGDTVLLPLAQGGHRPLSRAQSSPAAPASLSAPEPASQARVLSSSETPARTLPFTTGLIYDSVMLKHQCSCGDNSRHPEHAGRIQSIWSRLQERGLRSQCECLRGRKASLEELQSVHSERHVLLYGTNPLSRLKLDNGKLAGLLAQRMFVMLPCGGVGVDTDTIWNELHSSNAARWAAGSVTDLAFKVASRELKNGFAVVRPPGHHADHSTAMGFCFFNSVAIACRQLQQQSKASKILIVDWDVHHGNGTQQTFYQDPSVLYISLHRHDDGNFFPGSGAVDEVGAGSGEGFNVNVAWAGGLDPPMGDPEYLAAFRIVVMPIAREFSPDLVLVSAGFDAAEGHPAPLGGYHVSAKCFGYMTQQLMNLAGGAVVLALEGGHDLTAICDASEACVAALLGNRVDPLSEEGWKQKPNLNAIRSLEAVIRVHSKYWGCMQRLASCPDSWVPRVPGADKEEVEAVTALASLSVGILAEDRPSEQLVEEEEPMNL

Row | Structure (SMILES) | Ratio IC50 [1] | Activity [2] | IC50 [3] | GI50 [4] | fold change (FC) [5] | fold change (FC) [6] | inhibition [7] | Activity [8] | Activity [9] | inhibition [10] | inhibition [11] | IC50 [12] | fold change (FC) [13] | Ratio IC50 [14] | Ratio IC50 [15] | IC50 [16] | IC50 [17] | IC50 [18]
1 | C=C(c1ccc(OC)c(/C=C/C(=O)NO)c1)c1cc(OC)c(OC)c(OC)c1 | 60 | Active | 15000 nM | 2.04 nM | 3.2 | 14.2 | Dose-dependent effect | Active | Active | < 50% | < 50% | 10 nM | 3.2 | 5 | 135 |  |  | 
2 | C=C(c1ccc(OC)c(O)c1)c1cc(OC)c(OC)c(OC)c1 |  |  |  | 276 nM |  |  |  |  |  | inactive | inactive |  |  |  |  | 3.8 nM | Not Active | Not Active

Source: ChEMBL document CHEMBL4325829, “Design and Synthesis of Tubulin and Histone Deacetylase Inhibitor Based on iso-Combretastatin A-4” (J Med Chem, 2018)
